In patent publication US11766419B2, “Mebeverine as soluble epoxide hydrolase inhibitor” (Banasthali Vidyapith, priority 2021, dated 2023):

What was measured:
Assay type in all cases: in vivo, rat
[1] = system: DOCA-induced hypertensive rats; assay: DOCA induced hypertension, blood pressure; conditions: 20 mg/kg orally
Protocol: Wistar albino male rats were divided into four experimental groups (I, II, III and IV). Groups (II-IV) were administered with DOCA (20 mg/kg in 5% DMSO) intraperitoneally and drinking water was replaced by 2% NaCl. After induction of high blood pressure, Groups III and IV were treated with 10 mg/kg and 20 mg/kg mebeverine orally, respectively. At the end of this experimental period SAP, DAP and MAP were measured. The results are tabulated below in Tables 4A, 4B and 4C, respectively, and are plotted in FIGS. 4a, 4b and 4c.

[2] = system: DOCA-induced hypertensive rats; assay: SOD and TBAR level in heart and aortic tissue, DOCA induced hypertension
Protocol: Wistar albino male rats were divided into four experimental groups (I, II, III and IV). Groups (II-IV) were administered with DOCA (20 mg/kg in 5% DMSO) intraperitoneally and drinking water was replaced by 2% NaCl. […] At the end of this experimental period SAP, DAP and MAP were measured. The results are tabulated below in Tables 4A, 4B and 4C, respectively, and are plotted in FIGS. 4a, 4b and 4c. Additionally, the levels of oxidative stress biomarkers, superoxide dismutase (SOD) and thiobarbituric acid (TBARs)s in heart and aortic tissue were also measured (Cayman commercial kit). The results are tabulated in Table 5 and plotted in FIGS. 5a and 5b (TBAR level) and 6a and 6b (SOD level).

[3] = system: Triton WR-1339 induced hyperlipidaemic rats; assay: Triton WR-1339 induced hyperlipidemia, serum lipid profile and CRI/AI; conditions: for CRI: Coronary risk index; for Cholesterol / HDL / LDL / Triglycerides / VLDL: serum
Protocol: (§1) Wistar albino male rats were divided into four experimental groups (I, II, III and IV). Groups II-IV were treated with intraperitoneal injection of Triton WR-1339 (200 mg/kg in 2% gum acacia) in 12 h fasted rats to induce hyperlipidemia. Group III and IV were orally administered with Mebeverine twice daily for 3 days at 10 mg/kg and 20 mg/kg. After 48 h, induction of hyperlipidemia blood serum was investigated for total cholesterol and triglycerides. Blood samples were collected from all experimental rats on day 6 (4 days after start of treatment), and, subsequently, serum was separated for analysis of serum lipid profile parameters and CRI/AI. Liver was excised and stored at −80° C. until biochemical parameters in hepatic tissue samples were analysed. The results are tabulated below in Table 6 and plotted in FIGS. 7 (a-e) and 8.

[4] = system: Triton WR-1339 induced hyperlipidaemic rats; assay: TBAR and SOD level in hepatic tissue, Triton WR-1339 induced hyperlipidemia
Protocol: as §1
In addition, the effect on oxidative stress markers on hepatic tissue were also observed. The results are shown in Table 7 and plotted in FIGS. 9 and 10.

[5] = system: Lipopolysaccharide (LPS)-induced hyperlipidaemic rats; assay: LPS-induced hyperlipidemia, serum lipid profile and CRI/AI; conditions: for AI: Atherogenic index; for CRI: Coronary risk index; for Cholesterol / HDL / LDL / Triglycerides / VLDL: serum
Protocol: (§2) Wistar albino male rats were divided into different experimental groups—Single dose of 10 mg/kg, i.p. of LPS was administered to all the groups (II-IV). After 3 days of induction mebeverine was orally given twice daily for 5 days to groups (III-IV). After last dose, on day 5, blood samples were collected from all experimental rats for analysis of serum lipid profile parameters and CRI/AI. The results are tabulated below in Table 8 and plotted in FIGS. 11 (a-e) and 12. Biochemical estimations in hepatic tissue samples were also analyzed.

[6] = system: Lipopolysaccharide (LPS)-induced hyperlipidemic rats; assay: TBAR and SOD level in hepatic tissue, LPS-induced hyperlipidemia
Protocol: as §2, with “The results are tabulated below in Table 8 and plotted in FIGS. 11 (a-e) and 12.” left out

[7] = 10 mg/kg orally twice daily for 3 days
[8] = 20 mg/kg orally twice daily for 3 days
[9] = 10 mg/kg orally twice daily for 5 days
[10] = 20 mg/kg orally twice daily for 5 days

Structure (SMILES): CCN(CCCCOC(=O)c1ccc(OC)c(OC)c1)C(C)Cc1ccc(OC)cc1 (centres unmarked) [Mebeverine]
- MAP ([1]; D 4): 96 ± 7.57 mm Hg
- SAP ([1]; D 4): 114 ± 10.01 mm Hg
- DAP ([1]; D 5): 72 ± 0.70 mm Hg
- MAP ([1]; D 5): 86 ± 0.63 mm Hg
- SAP ([1]; D 5): 98 ± 1.09 mm Hg
- SOD Level ([2]; Aortic tissue, 10 mg/kg): 70.20 ± 0.28 U/g tissue
- TBAR level ([2]; Aortic tissue, 10 mg/kg): 0.87 ± 0.02 nmol/mg protein
- SOD Level ([2]; Aortic tissue, 20 mg/kg): 90.21 ± 0.21 U/g tissue
- TBAR level ([2]; Aortic tissue, 20 mg/kg): 0.71 ± 0.03 nmol/mg protein
- SOD Level ([2]; Heart tissue, 10 mg/kg): 73.04 ± 0.29 U/g tissue
- TBAR level ([2]; Heart tissue, 10 mg/kg): 0.88 ± 0.03 nmol/mg protein
- SOD Level ([2]; Heart tissue, 20 mg/kg): 86.24 ± 0.37 U/g tissue
- TBAR level ([2]; Heart tissue, 20 mg/kg): 0.68 ± 0.01 nmol/mg protein
- SOD activity (in words) ([2]; aortic and heart tissue): significant dose dependent increase
- TBARs concentration (in words) ([2]; aortic and heart tissue): significant dose dependent decrease
- HDL (in words) ([3]; 10 mg/kg): increases HDL
- triglycerides, cholesterol, LDL and VLDL and CRI/AI (in words) ([3]; 10 mg/kg): markedly decreases
- AT [3, 7]: 2.32 ± 0.02
- AT [3, 8]: 0.79 ± 0.19
- CRI [3, 7]: 3.32 ± 0.02
- CRI [3, 8]: 1.79 ± 0.02
- Cholesterol [3, 7]: 108.00 ± 8.48 mg/dL
- HDL [3, 7]: 32.50 ± 2.12 mg/dL
- LDL [3, 7]: 55.90 ± 9.75 mg/dL
- Triglycerides [3, 7]: 98.00 ± 9.8 mg/dL
- VLDL [3, 7]: 19.60 ± 3.25 mg/dL
- Cholesterol [3, 8]: 95.00 ± 4.94 mg/dL
- HDL [3, 8]: 53.00 ± 1.59 mg/dL
- LDL [3, 8]: 26.90 ± 1.83 mg/dL
- Triglycerides [3, 8]: 77.00 ± 9.19 mg/dL
- VLDL [3, 8]: 15.40 ± 1.83 mg/dL
- SOD ([4]; 10 mg/kg): 65.13 ± 0.22 U/g protein
- TBAR ([4]; 10 mg/kg): 0.78 ± 0.01 nmol/mg protein
- SOD ([4]; 20 mg/kg): 87.27 ± 0.30 U/g protein
- TBAR ([4]; 20 mg/kg): 0.70 ± 0.01 nmol/mg protein
- AI [5, 9]: 2.14 ± 0.02
- AI [5, 10]: 1.01 ± 0.17
- CRI [5, 9]: 3.14 ± 0.14
- CRI [5, 10]: 2.01 ± 0.17
- Cholesterol [5, 9]: 132.5 ± 4.24 mg/dL
- HDL [5, 9]: 42.0 ± 1.41 mg/dL
- LDL [5, 9]: 58.3 ± 3.25 mg/dL
- Triglycerides [5, 9]: 158.5 ± 3.58 mg/dL
- VLDL [5, 9]: 31.6 ± 0.34 mg/dL
- Cholesterol [5, 10]: 103.50 ± 1.41 mg/dL
- HDL [5, 10]: 51.00 ± 3.53 mg/dL
- LDL [5, 10]: 30.0 ± 3.25 mg/dL
- Triglycerides [5, 10]: 110.00 ± 2.82 mg/dL
- VLDL [5, 10]: 22.0 ± 0.56 mg/dL
- SOD ([6]; 10 mg/kg): 67.13 ± 0.21 U/g protein
- TBAR ([6]; 10 mg/kg): 1.10 ± 0.01 nmol/mg protein
- SOD ([6]; 20 mg/kg): 74.50 ± 0.15 U/g protein
- TBAR ([6]; 20 mg/kg): 0.701 ± 0.02 nmol/mg protein
